According to the METLIN SMRT retention time set (Domingo-Almenara et al. 2019):

Experiment: gradient 5% acetonitrile 3 min, to 50% in 2 min, to 85% in 15 min, held 3 min, 100 µL/min
Conditions: column: Zorbax Extend-C18 2.1 x 50 mm; eluents: water / acetonitrile, 0.1% formic acid
Method in brief: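 Retention times come from adduct peaks that were picked computationally and then checked by hand. The standards, pure and pooled in mixtures of ~100 molecules, were run on a Zorbax Extend-C18 column (2.1 × 50 mm, 1.8 μm) at 100 μL/min with water and acetonitrile, each with 0.1% formic acid. Detection was by quadrupole time-of-flight mass spectrometry in positive and negative ionization mode, with a dead volume of 40 μL and a dwell volume of 900 μL.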

Compared with `COc1ccc(NC(=O)c2cn(-c3cc(N4CCCC4)ncn3)cn2)cc1OC`, `COc1cc(NC(=O)N2CCCC(CN3CCc4ccccc4C3)C2)cc(OC)c1OC` (stereo not drawn) is lower in RP-LC retention time: 748 s for the first, 642 s for the second.

First: CCn1c(C)c(CCC(=O)Nc2ccc(C)c(C)c2)c(=O)n2nc(-c3ccccc3)nc12
Second: CCOc1ccc(NC(=O)Cn2nc3c(Oc4ccccc4C)nccn3c2=O)cc1
The RP-LC retention time of the first is higher: 935 s for the first, 870 s for the second.

First: CCOC(=O)CSCC(=O)Nc1nnc(-c2cccc([N+](=O)[O-])c2)s1
Second: CCc1sc(NC(=O)Cc2ccc(F)cc2)nc1-c1ccccc1
The RP-LC retention time of the first is lower: 764 s for the first, 1110 s for the second.

Compared with `CCNC(=O)c1cc(C2CC2)[nH]n1`, `Cn1c(C(=O)NC2CCCCCC2)cc2sccc21` is higher in RP-LC retention time: 611 s for the first, 1020 s for the second.

First: CC(=O)N1CCc2cc(N3CC(C(=O)Nc4cccc(Cl)c4)CC3=O)ccc21 (stereo not drawn)
Second: CCc1ccc(NC(=O)C2CCN(C(=O)C3Sc4ccccc4NC3=O)CC2)cc1 (stereo not drawn)
The RP-LC retention time of the first is lower: 738 s for the first, 760 s for the second.

First: CCN1CCN(CCNC(=O)c2nc3ccccn3c2-c2ccc(Cl)cc2)CC1
Second: CC1=C(C(=O)Nc2ccccc2C(=O)NCCN2CCN(C)CC2)SCCO1
The RP-LC retention time of the first is higher: 782 s for the first, 599 s for the second.

Compared with `Cc1cc(=O)n(CC(=O)N2CCCc3ccccc32)c(N2CCCC2)n1`, `CCc1cc(=O)n(CC(=O)N2CCc3ccccc32)c(N)n1` is lower in RP-LC retention time: 665 s for the first, 627 s for the second.

Going from `O=C(c1sc2ncccc2c1-n1cccc1)N1CCSCC1` to `O=C(NCC1CCCCC1)c1sc2ncccc2c1-n1cccc1`, the RP-LC retention time rises from 842 s to 1190 s.

Compared with `CCCS(=O)(=O)N1CC(=O)N(c2cc(Cl)ccc2C)C(C)(C(=O)NC2CCCCC2)C1` (stereo not drawn), `CC(C)(C)NC(=O)C1CCN(S(C)(=O)=O)c2cc(Cl)ccc2O1` (stereo not drawn) is lower in RP-LC retention time: 982 s for the first, 898 s for the second.

Going from `O=C(CN1C(=O)CCCc2ccccc21)NCCc1ccccc1` to `CN(C)c1ccc(CNC(=O)CN2C(=O)CCc3cc(Br)ccc32)cc1`, the RP-LC retention time falls from 783 s to 651 s.

Compared with `Cn1c(-c2cccc(C(=O)N3CCN(c4ccccc4)CC3)c2)nc2cccnc21`, `Brc1cccc(-c2noc(CSc3nccn3-c3ccccc3)n2)c1` is higher in RP-LC retention time: 736 s for the first, 1020 s for the second.

First: Cc1nc(-c2csc(S(=O)(=O)N3CCN(c4ccccc4Cl)CC3)c2)sc1C
Second: CCOc1ccc2ncc(C(=O)c3ccc(OC)cc3)c(N3CCN(CC)CC3)c2c1
The RP-LC retention time of the first is higher: 1320 s for the first, 600 s for the second.

First: COc1ccccc1CN[C@@H]1CCCN[C@@H]1c1ccccc1
Second: COc1ccc(C2CC(=O)N(Cc3ccccc3)C(=O)C2)cc1OC
The RP-LC retention time of the first is lower: 598 s for the first, 904 s for the second.

Compared with `C=C[C@]12CN(C)C3C4COC(CC41)[C@]1(C(=O)Nc4ccccc41)[C@@H]32` (stereo partly drawn), `COc1ccc2c(c1)C1(CCN(S(=O)(=O)c3ccc4c(c3)oc(=O)n4C)C1)C(=O)N2` (stereo not drawn) is higher in RP-LC retention time: 551 s for the first, 746 s for the second.

Going from `O=S(=O)(c1ccccc1F)N1CCN(Cc2cccc(F)c2)C2(CCOCC2)C1` to `O=C(c1cc(F)ccc1F)N1CCN(C(=O)c2nnn3c2COC(c2ccccc2)C3)CC1` (stereo not drawn), the RP-LC retention time rises from 807 s to 817 s.

First: Clc1ccccc1-c1nc(-c2ccc(-n3ccnc3)nc2)no1
Second: c1ccc(-c2noc(N3CCCCC3)n2)cc1
The RP-LC retention time of the first is lower: 749 s for the first, 1070 s for the second.

Compared with `O=C(CN1CCN(Cc2ccc(F)cc2)C1=O)NCc1ccc(F)cc1F`, `COCCn1cc(CCNC(=O)c2cc(F)cc(F)c2)c2cccnc21` is lower in RP-LC retention time: 809 s for the first, 737 s for the second.

Compared with `O=C1CCc2cc(NS(=O)(=O)/C=C/c3ccccc3)ccc2N1`, `CCS(=O)(=O)c1nc2ccc(NS(=O)(=O)c3ccc4c(c3)CCCC4)cc2s1` is higher in RP-LC retention time: 681 s for the first, 1010 s for the second.

Compared with `O=C(CCc1c[nH]c2ccccc12)N1CCCN(C2CCN(CC3CC3)C2=O)CC1` (stereo not drawn), `CN1CCN(CCCNC(=O)c2ccccc2NC(=O)C2=CSCCO2)CC1` is higher in RP-LC retention time: 570 s for the first, 878 s for the second.

Compared with `Cc1ccc(CNC(=O)c2c(C)sc3ccn(CC(C)C)c(=O)c23)cc1`, `Cc1ccc(-c2cn3cc(C(=O)NC(C)(C)C)ccc3n2)cc1` is lower in RP-LC retention time: 999 s for the first, 692 s for the second.

Compared with `O=C(Nc1ccccc1C(F)(F)F)N1CCC(n2cnc3cccnc32)CC1`, `Cc1cccc2nnc(N3CCC(C(=O)Nc4ccccc4F)CC3)n12` is higher in RP-LC retention time: 657 s for the first, 677 s for the second.

Compared with `Cc1cc(C)cc(NC(=O)C2CCN(S(C)(=O)=O)c3cc(C)ccc3O2)c1` (stereo not drawn), `Cc1oc(-c2[nH]ncc2C(=O)N(C)C)cc1S(=O)(=O)Nc1cccc(Cl)c1C` is lower in RP-LC retention time: 900 s for the first, 725 s for the second.

Compared with `O=C(c1cc(S(=O)(=O)N2CCCC(C(=O)N3CCCCCC3)C2)c[nH]1)N1CCCC1` (stereo not drawn), `O=C(c1cc(S(=O)(=O)N2CCCC(C(=O)N3CCOCC3)C2)c[nH]1)N1CCCCCC1` (stereo not drawn) is lower in RP-LC retention time: 729 s for the first, 696 s for the second.

First: COc1ccc(CNC(=O)C2CCCN(c3ncnc4c3nc3n4CCCCC3)C2)cc1 (stereo not drawn)
Second: CCOc1nc2ccccc2nc1N1CCCC(C(=O)Nc2ccc(OC)cc2OC)C1 (stereo not drawn)
The RP-LC retention time of the first is lower: 732 s for the first, 1180 s for the second.

Going from `O=C(CC1CCCC1)N1CCCC1c1nc(C2CCOCC2)no1` (stereo not drawn) to `CC1(C)Cc2cccc(OCC(=O)N3CCC(c4nnc(-c5ccco5)s4)CC3)c2O1`, the RP-LC retention time rises from 780 s to 827 s.

Going from `Cc1cc(C)n(-c2ccnc(N3CCC(C(=O)NCCc4cccs4)CC3)n2)n1` to `O=C(Nc1ccccc1)C1CCCN(c2cnc3nccnc3c2)C1` (stereo not drawn), the RP-LC retention time falls from 843 s to 703 s.

Compared with `CC(C)NC(=O)N1CCN(Cc2nc3cc(C(C)(C)C)ccc3o2)CC1`, `Cc1ccc(-n2ncc3c(NCCN4CCOCC4)ncnc32)cc1Cl` is lower in RP-LC retention time: 712 s for the first, 613 s for the second.

Going from `CC#C[C@@H](CC(=O)O)c1ccc(OCc2ccc(CN3CCC4(C=Cc5ccccc54)CC3)s2)cc1` to `Cc1ccc(C2c3[nH]c4ccccc4c3CCN2C(=O)c2ccnn2C)cc1` (stereo not drawn), the RP-LC retention time falls from 915 s to 673 s.

Going from `COc1cc(Br)cc(CC2C(=O)Nc3ccccc32)c1OC` (stereo not drawn) to `COc1ccc(C2CC(=O)N(c3cccc(F)c3)C(=O)C2)cc1OC`, the RP-LC retention time falls from 932 s to 839 s.

Going from `COCCn1c(SCc2nc(-c3ccc(C)cc3)no2)nc2cc3c(cc2c1=O)OCO3` to `CCOc1ccc(-c2noc(Cc3nnc(-c4ccc(C)c(F)c4)o3)n2)cc1`, the RP-LC retention time rises from 1100 s to 1140 s.

Going from `NS(=O)(=O)c1ccc(NC(=O)CCCN2C(=O)c3cccc4cccc(c34)C2=O)cc1` to `Cc1ccc(C2CC(=O)c3cnc(Nc4nc(C)c5ccc(C)cc5n4)nc3C2)cc1` (stereo not drawn), the RP-LC retention time rises from 694 s to 808 s.

Compared with `Cc1nc(C(=O)Nc2ccc(F)c(C)c2)c(C)o1`, `CCCc1nc(-c2c(C)cc(C)nc2NC(=O)c2ccccc2Br)no1` is higher in RP-LC retention time: 918 s for the first, 927 s for the second.

First: Nc1nc(Cl)nc2c1ncn2[C@@H]1O[C@H](CO)[C@@H](O)[C@H]1O
Second: CCn1ncc(CN2CCCCC2CCn2cc(-c3ccccc3)nn2)c1C (stereo not drawn)
The RP-LC retention time of the first is higher: 590 s for the first, 530 s for the second.

Compared with `COCCNC(=O)C(=O)NCCC(O)C(C)(C)C` (stereo not drawn), `Cc1n[nH]c(C)c1S(=O)(=O)N1CCOCC1` is lower in RP-LC retention time: 614 s for the first, 582 s for the second.
